# In publication PMC10974294, “Addressing the ADME Challenges of Compound Loss in a PDMS-Based Gut-on-Chip Microphysiological System” (Pharmaceutics, 2024):
# Structures can show the parent of a compound that is named as a salt.
# Legend:
# [1] = Compound loss (PDMS ad- and absorption) in cell-free organ-chips; assay type: in vitro ADME; details: cell-free organ-chips; for Compound Loss Bottom Channel (%) / Compound Loss Top Channel (%): 10 µM per drug in cocktail, outlet vs inlet after one hour at 200 µL/h, mean of two experiments
# Source text: S-1® Organ-Chips from Emulate Inc. (Boston, MA, USA) comprise 2 parallel channels (top and bottom) for cell culture, which are superimposed and separated via a porous membrane, all made of polydimethylsiloxane (PDMS). The 50 µm thick membrane contains pores of a diameter of 7 µm, which are spaced 40 µm apart from each other. In addition, 2 more channels, in which a vacuum can be applied to laterally stretch the cell culture channels, flank the cell culture channels horizontally. The top channel has a size of 1000 × 1000 µm (width × height), a culture area of 28 mm^2, and a volume of 28 µL. The bottom channel has a size of 1000 × 200 µm (width × height), a culture area of 24.5 mm^2, and a volume of 5.6 µL. Both channels share an area of 17.1 mm^2 of the porous membrane as a coculture area. To conduct experiments, each organ-chip is inserted into a cell culture container called Pod®, which connects 4 physically separated fluid reservoirs with the in- and outlets of the top and bottom channels. […] The Zoë module controls, as well as regulates, the vacuum and pressured gas flows generated by the Orb hub module, which also powers the Zoë module.
# Compound loss experiments in cell-free organ-chips were performed with used chips after removal of the cells and washing-out of previously perfused compounds (Section 4). […] The compound concentrations in the outlets were measured via liquid chromatography-tandem mass spectrometry (LC-MS/MS, Section 2.8) after a period of one hour, with a flow rate of 200 µL/h (manufacturer’s instruction), and relatively compared to the inlet concentrations, and the difference was reported as the percent drug absorbed. The experiments were performed in duplicate.
# [2] = Time-resolved testosterone loss and chip-specific clearance in cell-free organ-chips
# Protocol: The cell-free organ-chips were previously utilized in experiments with cells and were prepared in the same way as described for the compound loss studies above. The Caco-2/HUVEC gut-on-chip was cultivated under the conditions described for standard cell culture until day 13. […] An introduction step with a high flow rate of 600 µL/h is recommended by the manufacturer to “saturate” the ad- and absorptions of compounds by the PDMS material. The necessity of this step will be discussed in Section 3 and Section 4. After the introduction step, both outlets were aspirated. […] During the sampling, the flow was stopped for a few seconds, a Pod®, which included a chip, was removed from the Zoë, a single chip removed from the Pod®, and samples were taken. The samples from the bottom outlet were used directly for bioanalytical quantification. The samples from the top inlet and top outlet were sampled from the respective reservoirs and diluted 1:50 (v/v) in transport buffer. The chips were subsequently dismantled from the Pods, and samples from the top channel and bottom channel were taken with a pipette via the outlets (Figure 1A). The samples from the top channel were diluted 1:50 (v/v) and the samples from the bottom channel 1:2 (v/v) in transport buffer.
# The outlet reservoirs contained, therefore, perfusates from time zero to time point t. […] A period of 60 min was chosen because it was recommended by the manufacturer for diverse applications. […] For time points before 60 min, Ct,last was identical to Ct,cum by definition. Vt is the total volume of perfusate collected from time zero to t. Vt was calculated with the following equation:(4) Vt=t÷60×Q
# The time profiles of Ct,last in the cell-free organ-chips and in the Caco-2/HUVEC gut-on-chip are shown in Figure 6A,B. Using Ct,last, the compound loss can be calculated in each putative collecting period of 60 min with the following equation:(5) Losst=Cinlet−Ct, last, top−Ct, last, bottom×Q
# Caco-2/HUVEC gut-on-chip [3] = test: Time-resolved testosterone loss, clearance, permeability and mass balance in Caco-2/HUVEC gut-on-chip
# Protocol: The Caco-2/HUVEC gut-on-chip was prepared according to the Caco-2/HUVEC gut-on-chip protocol provided by Emulate Inc. Briefly, on day −1 of the protocol, the PDMS membrane was activated using Emulate reagent (ER) 1 dissolved in ER 2 solution at a concentration of 0.5 mg/mL. The top channels were filled with 50 µL and the bottom channels with 20 µL of ER 1 solution and then treated under UV light for 10 min. Next, activated ER 1 solution was aspirated from both channels and exchanged with fresh ER 1 solution after which the chips were again exposed to UV light for 5 min. The two channels were then subsequently washed with ER 2 solution followed by ice-cold PBS. After the PBS was fully aspirated from both channels, the chips were coated with 100 µg/mL Matrigel and 30 µg/mL collagen type I in PBS overnight at 37 °C. On day 0 of the protocol, both channels were washed with HUVEC culture medium before 0.14 × 10^6 viable HUVECs in 20 µL HUVEC culture medium were seeded in the bottom channel. The chips were inverted and HUVECs were allowed to adhere for at least 2 h to the porous PDMS membrane. Afterwards, the chips were inverted again, and the top channel was filled with enough Caco-2 culture medium to also cover the in- and outlets (~100 µL). Caco-2 cells were seeded in the top channel (0.15 × 10^6 viable cells in 50 µL Caco-2 culture medium). Caco-2 cells were also allowed to adhere for 2 h and then the channels were filled with the respective media and incubated overnight at 37 °C. On day 1, the inlet reservoirs of the Pods were filled with 3 mL of the respective degassed media, and the chips were connected to the Pods. The Pods were then placed into the Zoë module, and a flow at a rate of 30 µL/h (manufacturer’s instruction) was applied for both channels. From day 3 onwards, the HUVECs were cultured in HUVEC culture medium but with 0.5% FCS. On day 3, 10% lateral, peristalsis-like stretch was activated with a frequency of 0.15 Hz (manufacturer’s instruction). On day 8, the FCS concentration in the Caco-2 culture medium was reduced from 20% to 10%. Medium reservoirs were replenished with fresh medium 2–3 times per week.
# The cell-free organ-chips were previously utilized in experiments with cells and were prepared in the same way as described for the compound loss studies above. The Caco-2/HUVEC gut-on-chip was cultivated under the conditions described for standard cell culture until day 13. […] An introduction step with a high flow rate of 600 µL/h is recommended by the manufacturer to “saturate” the ad- and absorptions of compounds by the PDMS material. […] The samples from the bottom outlet were used directly for bioanalytical quantification. […]
# A quantitative bioanalysis was performed with a fit-for-purpose assay using protein precipitation followed by LC-MS/MS. […]
# Caco-2/HUVEC gut-on-chip [4] = test: Metabolite identification in Caco-2/HUVEC gut-on-chip; details: for fraction of the total amount of all metabolites (peak areas): testosterone 10 µM perfused 2 h at 200 µL/h, top and bottom outlets
# Protocol: The analysis was performed on an LC-MS system containing a Vanquish UPLC (ThermoFisher Scientific, San Jose, CA, USA) coupled to an Orbitrap FusionTribrid high-resolution mass spectrometer (ThermoFisher Scientific). The structural elucidation was based on exact mass measurements in combination with the interpretation of fragment spectra.
# [5] = cell-free organ-chips, testosterone 10 µM, 200 µL/h
smiles,measurement,setting,value
Cc1ncc2n1-c1ccc(Cl)cc1C(c1ccccc1F)=NC2 [Midazolam],Compound Loss Bottom Channel (%),[1],67.8%
same,Compound Loss Top Channel (%),[1],72.1%
CCN(CC)CC#CCOC(=O)C(O)(c1ccccc1)C1CCCCC1 (centres unmarked) [Oxybutynin],Compound Loss Bottom Channel (%),[1],100.0%
same,Compound Loss Top Channel (%),[1],99.9%
same,PDMS compound loss during the one-hour period (in words),"[1]; 10 µM, one hour, 200 µL/h, top and bottom channels",complete
C=C[C@H]1C[N@@]2CC[C@H]1C[C@@H]2[C@@H](O)c1ccnc2ccc(OC)cc12 [Quinidine],Compound Loss Bottom Channel (%),[1],13.4%
same,Compound Loss Top Channel (%),[1],0.3%
CC(C)c1nc(N(C)S(C)(=O)=O)nc(-c2ccc(F)cc2)c1/C=C/[C@@H](O)C[C@@H](O)CC(=O)O [Rosuvastatin],Compound Loss Bottom Channel (%),[1],7.9%
same,Compound Loss Top Channel (%),[1],12.6%
CC(C)(C)NC(=O)[C@@H]1C[C@@H]2CCCC[C@@H]2CN1C[C@@H](O)[C@H](Cc1ccccc1)NC(=O)[C@H](CC(N)=O)NC(=O)c1ccc2ccccc2n1 [Saquinavir],Compound Loss Bottom Channel (%),[1],21.9%
same,Compound Loss Top Channel (%),[1],48.0%
C[C@]12CC[C@H]3[C@@H](CCC4=CC(=O)CC[C@@]43C)[C@@H]1CC[C@@H]2O [Testosterone],Compound Loss Bottom Channel (%),[1],35.1%
same,Compound Loss Top Channel (%),[1],37.6%
same,final testosterone concentration in the bottom channel and outlet,"[2]; cell-free organ-chips, 10 µM via top inlet, 200 µL/h, 135 min",< 1000 nM
same,testosterone concentration in the top channel and outlet,"[2]; cell-free organ-chips, 10 µM via top inlet, 200 µL/h, reached over 135 min",~ 7000 nM
same,clearance (chip-specific / chip-intrinsic clearance),"[2]; cell-free organ-chips, collecting period 75-135 min, flow 200 µL/h",11.7 µL/h
same,compound loss during the first 60 min of the collecting period,[2]; [5],719.1 pmol/h
same,compound loss in the last 60 min of the collecting period,[2]; [5],116.5 pmol/h
same,compound loss corresponding to chip-intrinsic clearance,[2]; corresponds to 11.7 µL/h at flow 200 µL/h,6%
same,maximum testosterone concentration (top channel and outlet),"Caco-2/HUVEC gut-on-chip [3]; Caco-2/HUVEC gut-on-chip, 10 µM via top inlet, 200 µL/h, 135 min",< 2000 nM
same,time to steady state,"Caco-2/HUVEC gut-on-chip [3]; Caco-2/HUVEC gut-on-chip, first sample time point",≤ 15 min
same,clearance (total) in Caco-2/HUVEC gut-on-chip,"Caco-2/HUVEC gut-on-chip [3]; collecting period 75-135 min, flow 200 µL/h",172.1 µL/h
same,metabolic clearance in the gut-on-chip,"Caco-2/HUVEC gut-on-chip [3]; total clearance minus chip-specific clearance, flow 200 µL/h",160.4 µL/h
same,CYP3A4-related hydroxylation of testosterone,Caco-2/HUVEC gut-on-chip [4]; Caco-2/HUVEC gut-on-chip,did not detect
O[C@@H](COc1cccc2ncccc12)CN1CCN([C@@H]2c3ccccc3[C@@H]3[C@H](c4ccccc42)C3(F)F)CC1 [Zosuquidar],compound loss after 1 h of perfusion,[1]; 10 µM,~100%
same,Compound Loss Bottom Channel (%),[1],99.0%
same,Compound Loss Top Channel (%),[1],97.0%
C[C@]12CC[C@H]3[C@@H](CCC4=CC(=O)CC[C@@]43C)[C@@H]1CC[C@@H]2O[C@@H]1O[C@H](C(=O)O)[C@@H](O)[C@H](O)[C@H]1O [testosterone glucuronide],fraction of the total amount of all metabolites (peak areas),Caco-2/HUVEC gut-on-chip [4],3.2%
C[C@]12CC[C@H]3[C@@H](CCC4=CC(=O)CC[C@@]43C)[C@@H]1CC[C@@H]2OS(=O)(=O)O [testosterone sulfate],fraction of the total amount of all metabolites (peak areas),Caco-2/HUVEC gut-on-chip [4],0.3%
